“Also recorded” adds a separate entry of the source. Like-named read-outs stand apart in the source and are kept apart here.
How the values were obtained:
[1] = tested on: MMPs; details: not tested in Table 1; cited from earlier work
[2] = cited from earlier work
[3] = target: T1, MMP-1 (Homo sapiens, UniProt P03956); assay: MMP profiling, IC50 (fluorimetric MMP inhibitor profiling kit); assay type: biochemical
T1 construct: purchased Enzo Life Science, Farmingdale, NY
Method: (§1) After administration of fluorogenic substrate, a velocity of fluorescent increase was measured using excitation/emission=320/405 nm.

[4] = target: T2, MMP-10 (Homo sapiens, UniProt P09238); assay: as above; assay type: biochemical
T2 construct: purchased Enzo Life Science, Farmingdale, NY
Method: as §1

[5] = target: T3, MMP-12 (Homo sapiens, UniProt P39900); assay: as above; assay type: biochemical
T3 construct: purchased Enzo Life Science, Farmingdale, NY
Method: as §1

[6] = target: T4, MMP-13 (Homo sapiens, UniProt P45452); assay: as above; assay type: biochemical
T4 construct: purchased Enzo Life Science, Farmingdale, NY
Method: as §1

[7] = target: T5, MMP-14 (Homo sapiens, UniProt P50281); assay: as above; assay type: biochemical
T5 construct: purchased Enzo Life Science, Farmingdale, NY
Method: as §1

[8] = target: T6, MMP-2 (Homo sapiens, UniProt P08253); assay: as above; assay type: biochemical
T6 construct: purchased Enzo Life Science, Farmingdale, NY
Method: as §1

[9] = target: T7, MMP-3 (Homo sapiens, UniProt P08254); assay: as above; assay type: biochemical
T7 construct: purchased Enzo Life Science, Farmingdale, NY
Method: as §1

[10] = target: T8, MMP-7 (Homo sapiens, UniProt P09237); assay: as above; assay type: biochemical
T8 construct: purchased Enzo Life Science, Farmingdale, NY
Method: as §1

[11] = target: T9, MMP-8 (Homo sapiens, UniProt P22894); assay: as above; assay type: biochemical
T9 construct: purchased Enzo Life Science, Farmingdale, NY
Method: as §1

[12] = target: T10, MMP-9 (Homo sapiens, UniProt P14780); assay: as above; assay type: biochemical
T10 construct: purchased Enzo Life Science, Farmingdale, NY
Method: as §1

[13] = tested on: T11, MMPs; assay: MMP profiling, summary over the whole MMP panel; assay type: biochemical; details: MMP-1 to MMP-14 of Table 1; read-out: IC50 against each MMP enzymatic activity (span over the panel)
T11 construct: rows headed: IC50 against each MMP enzymatic activity (span over the panel)
Method: as §1
(§2) Since MMP-9 plays a central role in pancreatic cancer invasion, MMP-9 mRNA and protein levels were examined in both cell lines.

[14] = tested on: T12, MMPs; assay: MMP profiling, summary over the whole MMP panel; assay type: biochemical
T12 construct: rows headed: anti-MMP activity, IC50 range
Method: as §1, §2

[15] = tested on: pancreatic cancer cell lines; assay: Matrigel invasion assay; assay type: cell-based, human
Method: Matrigel invasion assay: Cell invasion was assayed in BD BioCoat Matrigel invasion chambers (BD Biosciences; 24 wells, 8 μm pore size) as described previously (26). […] Non-invaded cells were removed from the upper surface of the membrane with a cotton swab, and cells on the lower surface of the membrane were fixed and stained with H&E. Three random fields per chamber were counted. Data were shown as mean±S.D. of triplicate determinations. […] For this assay, ten different pancreatic cancer cell lines in a matrigel invasion chamber were used.

[16] = tested on: pancreatic cancer cell lines; assay: Cell migration assay (wound healing); assay type: cell-based, human
Method: Cell Migration Assay: Cell migration assay is a classical wound healing assay (25). For this assay, cells were cultured in 10 cm petri dishes until they were completely confluent. […] Five random fields were selected and pictures were taken using an inverted microscope. The average area (mm 2) of the gap between the cell layers was calculated using IPLab imaging software (BD Biosciences-Bioimaging, Rockville, MD). […] For the migration assay, a wound healing assay was used (described above in Example 1).

[17] = tested on: MMPs; assay: MMP activity in pancreatic cancer cell lines (fluorogenic peptide substrate); assay type: cell-based, human; details: two representative cell lines, concentration-dependent
Method: (§3) Measurement of MMP activity: MMPs activity was measured by Mca-KPLGL-Dpa-AR-NH2 Fluorogenic Peptide Substrate (R&D systems, Emeryville, CA). Total cell protein from each pancreatic cancer cell line was collected using lysis buffer (containing 50 mM Tris-HCl, 10 mM CaCl2, 0.05% Brij35 and 0.25% Triton-X) without an MMP inhibitor. Substrate and 10 μg of total cell protein in the buffer were mixed in a black-wall 96-well plate. After 1 hour incubation, fluorescence units were determined using excitation/emission=320/405 nm.

[18] = tested on: MMP-9; assay: qRT-PCR of MMP-9 mRNA in pancreatic cancer cell lines; assay type: cell-based, human; details: highest concentration (5 mM), both cell lines
Method: (§4) Quantitative Reverse transcription-PCR (qRT-PCR): qRT-PCR was performed as described previously using QuantiTect SYBR Green PCR Kits (QIAGEN, Valencia, CA) (28). Gene specific primers for human MMP-9, MMP-12, MMP-14 and I3-actin were either purchased from QIAGEN or synthesized at the CBER core facility. Gene expression was normalized to β-actin before the fold change in gene expression was determined.
as §2

[19] = tested on: MMP-9; assay: ELISA of MMP-9 protein in pancreatic cancer cell lines; assay type: cell-based, human; details: highest concentration (5 mM), both cell lines
Method: Enzyme-Linked ImmunoSorbent Assay (ELISA): The NIMP-9 protein level was determined using Human total MMP-9 DuoSet kit (R&D systems, Emeryville, CA) following the manufacturer's instruction. Ten microgram of total protein was aliquoted in each well and the MMP-9 concentration was determined by the colorimetric method. […] Since MMP-9 plays a central role in pancreatic cancer invasion, MMP-9 mRNA and protein levels were examined in both cell lines.

[20] = tested on: MMP-12; assay: qRT-PCR of MMP-12 mRNA in pancreatic cancer cell lines; assay type: cell-based, human; details: highest concentration, in vitro
Method: as §4, §2

[21] = tested on: MMP-14; assay: qRT-PCR of MMP-14 mRNA in pancreatic cancer cell lines; assay type: cell-based, human; details: highest concentration, in vitro
Method: as §4, §2

[22] = tested on: MMP-9; assay: Gelatin gel zymography of cell lysates; assay type: cell-based, human; details: cell lines in vitro, dose dependent
Method: (§5) Briefly, 50 μg of total protein was electrophoresed on 10% SDS-PAGE containing 0.1% gelatin as substrate. After washing with 1% Triton X-100 in 50 mM Tris/HCl, pH 7.5 for 1 hr to remove SDS, the gels were incubated overnight at 37° C. in 50 mM Tris/HCl, pH 7.5, containing 150 mM NaCl, 10 mM CaCl2 and 0.1% Triton X-100, prior to staining with simply blue safe stain. The gels were washed with deionized water at room temperature. […] Relevant band intensities were quantified by scanning densitometric analysis and normalized to cell number.
as §2

[23] = tested on: H5766T tumor; assay: Orthotopic pancreatic cancer mouse model: metastasis, ascites, survival; assay type: in vivo, mice
Method: (§6) Measurement of metastasis, survival and body weight of animals implanted with orthotopic pancreatic cancer in mouse model: Female nude nu/nu mice between ages 5 and 6 weeks were maintained in a barrier facility in HEPA-filtered rack. All animal studies were conducted under approved protocol #2000-06 by the CBER Institutional Animal Care and Use Committee in accordance with the principles and procedures outlined in the NIH Guideline for the Care and Use of Laboratory Animals. For orthotopic tumor cell injection, the pancreas was carefully exposed, and 2.0×10^6 of MIA-PaCa2 and H5766T cells were injected into the organ. The pancreas was then returned to the peritoneal cavity, and the abdominal wall and skin were closed with skin clips (29, 30). […] At day 30, mice were sacrificed and the number of metastatic nodules visible by naked eye and whose sizes were >5 mm in diameter counted. The total weight of primary tumor and metastatic nodules were also measured. Pictures were taken immediately after sacrificing the animals. Additionally, mouse survival time was monitored in an independent experiment. Mice were sacrificed when they had severe ascites or cachexia.
(§7) At day 30, the number and weight of the primary tumor and metastatic nodules were measured. […] The survival of mice among different treatment groups was also determined.

[24] = tested on: MIA-PaCa2 tumor; assay: as above; assay type: in vivo, mice
Method: as §6, §7

[25] = General condition, body weight, serum enzymes and histology of treated tumor-bearing mice; assay type: in vivo
Method: as §6
Measurement of enzymes in mouse serum: Mouse blood was collected from the tail vein. Serum levels of alanine aminotransferase (ALT), creatine kinase (CK), aldolase and creatinine (Cr) were measured using different kits obtained from Pointe Scientific, Inc. (Canton, MI) and Caldon Biotech, Inc. (Vista, Ca), following the manufacturer's instruction.
The general condition and body weight of mice throughout the experimental period was also monitored. […] Similarly, there was no alteration in serum enzymes representing liver function (ALT) or muscle damage (Aldolase) nor evidence of skeletal muscle damage or kidney function (creatinine kinase and creatinine) in the cysteamine-treated groups.

[26] = tested on: MMPs; assay: MMP activity in primary orthotopic tumors; assay type: in vivo, mice; details: H5766T and MIA-PaCa2 tumors, 100 and 250 mg/Kg, day 30
Method: as §3

[27] = tested on: MMP-9; assay: qRT-PCR of MMP-9 mRNA in primary orthotopic tumors; assay type: in vivo, mice; details: tumors harvested day 30
Method: as §4

[28] = tested on: MMP-9; assay: ELISA of MMP-9 protein in primary orthotopic tumors; assay type: in vivo, mice; details: tumors harvested day 30
Method: Enzyme-Linked ImmunoSorbent Assay (ELISA): The NIMP-9 protein level was determined using Human total MMP-9 DuoSet kit (R&D systems, Emeryville, CA) following the manufacturer's instruction. Ten microgram of total protein was aliquoted in each well and the MMP-9 concentration was determined by the colorimetric method.

[29] = tested on: MMP-9; assay: Zymography for MMP-9 in primary orthotopic tumors; assay type: in vivo, mice; details: tumors harvested day 30
Method: as §5

[30] = cited from earlier work; remark: listed apart in the source
[31] = tested on: intracellular cystine; details: cited from earlier work
[32] = in vivo; cited from earlier work
[33] = delivery to the small intestine (WO 2007/089670)

T6 sequence (P08253 110-660): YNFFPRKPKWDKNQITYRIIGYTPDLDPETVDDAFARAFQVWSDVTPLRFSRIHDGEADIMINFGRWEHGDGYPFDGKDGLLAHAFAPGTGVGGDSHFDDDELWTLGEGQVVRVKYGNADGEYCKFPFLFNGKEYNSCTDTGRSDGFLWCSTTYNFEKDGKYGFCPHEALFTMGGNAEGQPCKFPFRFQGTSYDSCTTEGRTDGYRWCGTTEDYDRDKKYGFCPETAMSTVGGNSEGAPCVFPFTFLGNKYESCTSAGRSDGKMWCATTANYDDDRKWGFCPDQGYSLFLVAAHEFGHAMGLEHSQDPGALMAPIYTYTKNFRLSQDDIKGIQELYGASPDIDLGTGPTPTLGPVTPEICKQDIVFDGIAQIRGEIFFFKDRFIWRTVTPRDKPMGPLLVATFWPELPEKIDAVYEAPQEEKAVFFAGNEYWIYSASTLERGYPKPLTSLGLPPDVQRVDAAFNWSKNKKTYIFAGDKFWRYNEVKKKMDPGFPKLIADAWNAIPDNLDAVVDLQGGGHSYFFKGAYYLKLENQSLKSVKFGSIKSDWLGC
T9 sequence (P22894 101-467): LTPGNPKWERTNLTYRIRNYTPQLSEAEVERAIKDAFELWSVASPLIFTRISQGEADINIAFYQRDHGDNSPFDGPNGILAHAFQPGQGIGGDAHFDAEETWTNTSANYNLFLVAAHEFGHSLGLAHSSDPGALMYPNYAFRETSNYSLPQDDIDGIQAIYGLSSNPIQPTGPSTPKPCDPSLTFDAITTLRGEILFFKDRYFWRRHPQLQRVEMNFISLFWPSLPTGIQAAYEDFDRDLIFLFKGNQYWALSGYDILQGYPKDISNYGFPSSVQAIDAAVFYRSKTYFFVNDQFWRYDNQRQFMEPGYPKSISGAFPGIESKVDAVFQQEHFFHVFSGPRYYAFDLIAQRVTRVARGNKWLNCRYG
T3 sequence (P39900 106-470): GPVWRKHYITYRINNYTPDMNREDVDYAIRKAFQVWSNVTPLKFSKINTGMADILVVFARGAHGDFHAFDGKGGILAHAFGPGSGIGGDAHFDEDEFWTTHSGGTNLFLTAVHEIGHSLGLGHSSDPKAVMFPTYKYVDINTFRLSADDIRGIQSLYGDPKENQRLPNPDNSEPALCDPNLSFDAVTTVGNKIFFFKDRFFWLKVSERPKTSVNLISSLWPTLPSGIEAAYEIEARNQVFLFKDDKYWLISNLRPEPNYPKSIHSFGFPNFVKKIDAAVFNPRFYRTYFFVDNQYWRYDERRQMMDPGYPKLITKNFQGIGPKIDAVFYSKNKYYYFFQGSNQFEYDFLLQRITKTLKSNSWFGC
T7 sequence (P08254 100-477): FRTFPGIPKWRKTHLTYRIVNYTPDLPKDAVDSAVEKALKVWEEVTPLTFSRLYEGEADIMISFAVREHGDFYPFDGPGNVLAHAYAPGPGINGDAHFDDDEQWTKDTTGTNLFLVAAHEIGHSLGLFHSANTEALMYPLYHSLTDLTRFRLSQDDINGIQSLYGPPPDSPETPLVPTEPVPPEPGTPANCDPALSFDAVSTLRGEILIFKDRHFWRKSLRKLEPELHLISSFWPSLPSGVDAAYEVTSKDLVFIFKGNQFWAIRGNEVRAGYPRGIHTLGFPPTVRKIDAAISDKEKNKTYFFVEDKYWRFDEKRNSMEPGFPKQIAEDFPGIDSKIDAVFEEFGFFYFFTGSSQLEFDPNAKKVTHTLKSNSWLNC
T10 sequence (P14780 94-707): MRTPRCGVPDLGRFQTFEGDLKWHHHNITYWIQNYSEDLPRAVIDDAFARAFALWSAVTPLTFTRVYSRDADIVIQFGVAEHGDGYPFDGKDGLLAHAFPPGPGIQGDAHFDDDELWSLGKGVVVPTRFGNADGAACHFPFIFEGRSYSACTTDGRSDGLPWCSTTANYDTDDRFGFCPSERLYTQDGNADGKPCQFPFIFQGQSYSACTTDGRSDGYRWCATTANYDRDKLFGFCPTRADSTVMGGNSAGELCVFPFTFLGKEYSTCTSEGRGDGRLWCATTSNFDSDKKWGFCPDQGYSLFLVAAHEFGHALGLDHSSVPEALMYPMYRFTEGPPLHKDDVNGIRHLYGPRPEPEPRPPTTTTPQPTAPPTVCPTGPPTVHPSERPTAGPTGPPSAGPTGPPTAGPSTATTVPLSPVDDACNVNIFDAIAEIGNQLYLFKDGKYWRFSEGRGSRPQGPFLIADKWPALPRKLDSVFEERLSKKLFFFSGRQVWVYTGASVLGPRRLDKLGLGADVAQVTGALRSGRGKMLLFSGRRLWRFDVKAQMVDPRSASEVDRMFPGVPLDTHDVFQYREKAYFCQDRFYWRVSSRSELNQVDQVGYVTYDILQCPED
T8 sequence (P09237 95-267): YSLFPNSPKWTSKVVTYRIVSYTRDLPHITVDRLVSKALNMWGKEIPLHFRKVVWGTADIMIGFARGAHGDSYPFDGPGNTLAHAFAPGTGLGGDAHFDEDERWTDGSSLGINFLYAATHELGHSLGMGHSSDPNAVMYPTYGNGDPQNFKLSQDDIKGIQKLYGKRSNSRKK
T1 sequence (P03956 100-469): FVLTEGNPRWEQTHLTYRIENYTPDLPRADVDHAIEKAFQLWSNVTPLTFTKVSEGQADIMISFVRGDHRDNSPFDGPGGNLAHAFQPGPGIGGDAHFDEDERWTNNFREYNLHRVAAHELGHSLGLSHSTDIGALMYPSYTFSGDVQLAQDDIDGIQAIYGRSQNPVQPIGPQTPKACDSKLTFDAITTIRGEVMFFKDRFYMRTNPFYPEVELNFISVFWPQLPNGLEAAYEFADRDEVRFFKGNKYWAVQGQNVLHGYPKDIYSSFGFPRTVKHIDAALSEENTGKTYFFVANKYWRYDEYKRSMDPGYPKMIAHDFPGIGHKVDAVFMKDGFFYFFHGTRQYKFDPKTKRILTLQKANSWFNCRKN
T2 sequence (P09238 99-476): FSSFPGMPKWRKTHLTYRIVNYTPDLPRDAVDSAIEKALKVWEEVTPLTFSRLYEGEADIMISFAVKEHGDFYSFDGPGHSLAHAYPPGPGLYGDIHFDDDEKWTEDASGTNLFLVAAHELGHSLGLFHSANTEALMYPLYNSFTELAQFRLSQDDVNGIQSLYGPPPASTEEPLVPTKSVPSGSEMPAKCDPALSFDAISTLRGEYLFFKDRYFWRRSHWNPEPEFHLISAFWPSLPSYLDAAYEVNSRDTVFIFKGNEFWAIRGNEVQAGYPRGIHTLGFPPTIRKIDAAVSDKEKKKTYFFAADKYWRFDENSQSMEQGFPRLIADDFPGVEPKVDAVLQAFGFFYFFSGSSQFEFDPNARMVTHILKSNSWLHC

CNC(=O)[C@@H](NC(=O)[C@H](CC(C)C)[C@H](O)C(=O)NO)C(C)(C)C [marimastat]
anti-MMP activity, IC50 range [1]: nM to low μM
clinical toxicity ([2]; higher dosage, patients with breast cancer metastasis): high musculoskeletal toxicities

NCCS [Cysteamine]
IC50 [3]: 290 µM
IC50 [4]: 310 µM
IC50 [5]: 60 µM
IC50 [6]: 460 µM
IC50 [7]: 91 µM
IC50 [8]: 38 µM
IC50 [9]: 330 µM
IC50 [10]: 40 µM
IC50 [11]: 240 µM
IC50 [12]: 200 µM
IC50 [13]: 38 to 460 µM
anti-MMP activity, IC50 range [14]: high μM range
lowest concentration that significantly inhibited cell invasion ([15]; all ten pancreatic cancer cell lines, 24 hours): 0.05 mM
concentration that sufficiently inhibited cancer cell invasion in vitro ([15]; discussion): 50 µM
concentration at which cell migration was significantly inhibited ([16]; all ten cell lines, 24 hours): ≥ 0.05 mM
concentration that sufficiently inhibited cancer cell migration in vitro ([16]; discussion): 50 µM
MMP activity in pancreatic cancer cell lines [17]: inhibited
mRNA level of MMP-9 [18]: modestly increased; also recorded: modestly to moderately upregulated
protein level of MMP-9 [19]: modestly increased; also recorded: modestly to moderately upregulated
mRNA of MMP-12 [20]: modest increase; also recorded: modestly upregulated
mRNA of MMP-14 [21]: modest increase; also recorded: modestly upregulated
zymographic gelatin hydrolyzing activity, pro and active MMP-9 [22]: decreased significantly; also recorded: dose dependent decrease
mouse survival time ([23]; 100 mg/kg/day, FIG. 1A): significantly prolonged
decrease in number of metastases ([23]; 250 mg/kg/day s.c., day 30): ~90%
number of metastases ([23]; 250 mg/kg/day s.c., day 30 (control 34)): 3.6
ascites in peritoneal cavity ([23]; 100 and 250 mg/kg/day): no mice developed ascites
number of metastatic nodules ([23]; dose-dependent, day 30): significantly decreased
size and weight of the primary tumor vs control ([23]; s.c. twice daily from day 4, day 30): did not show any difference
mouse survival time ([24]; MIA-PaCa2, 100 mg/kg/day, FIG. 1B): significantly prolonged
ascites in peritoneal cavity ([24]; MIA-PaCa2, 100 and 250 mg/kg/day): no mice developed ascites
number of metastatic nodules ([24]; MIA-PaCa2, dose-dependent, day 30): significantly decreased
decrease in total weight of metastatic nodules ([24]; MIA-PaCa2, highest dose (250 mg/kg/day), day 30): ~90%
size and weight of the primary tumor vs control ([24]; MIA-PaCa2, s.c. twice daily from day 4, day 30): did not show any difference
dose tolerated without visible, biochemical or histological evidence of toxicity ([25]; mice): up to 250 mg/kg/day
organ toxicity by histological examination ([25]; mouse, in vivo): no organ toxicity
serum ALT (liver function) ([25]; mouse, in vivo): no alteration
serum Aldolase (muscle damage) ([25]; mouse, in vivo): no alteration
serum creatinine (kidney function) ([25]; mouse, in vivo): no alteration
serum creatinine kinase ([25]; mouse, in vivo): no alteration
adverse effects (general appearance, body weight, muscle damage, serum enzymes, serum creatinine) ([25]; mouse, in vivo, 250 mg/kg/day): no adverse effects
MMPs activity in primary orthotopic tumors [26]: decreased
mRNA level of MMP-9 in primary tumors [27]: did not affect
protein level of MMP-9 in primary tumors [28]: did not affect
gelatinase activity, zymography for MMP-9, primary tumors [29]: dose dependent decrease
AUC [30, 33]: increases AUC
cysteamine plasma level ([30]; oral, every 6 hours, 60 to 90 mg/kg of body weight per day): ≤ 50 µM
time to decrease in leukocyte cystine [31, 33]: within an hour
depletion of intracellular cystine ([31]; taken regularly, circulating white blood cells): up to 90%
adverse effects in subjects [32]: only gastrointestinal symptoms

CNC(=O)[C@H](Cc1ccccc1)NC(=O)[C@H](CC(C)C)[C@H](CSc1cccs1)C(=O)NO [Batimastat]
oral bioavailability ([2]; in vivo, po): poor oral bioavailability
